# Values joined by “and” are separate entries in the source; they are usually repeats but may differ in a detail not shown here. Equal values may be shown once.
# What was measured:
# P. dumerilii embryos = test: Developmental toxicity assay with P. dumerilii embryos, dilution factor of in-use concentration (EC50,DF), also after degradation in darkness; assay type: in vivo, Platynereis dumerilii; details: for Normal development: 2,6-DCQ
# How it was run: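 In-use DBP doses (3-log E. coli reduction, pH 7.2) were serially diluted onto embryos at 12 h postfertilization in seawater. Normal development to first larval stage was scored by microscopy at 24 h postfertilization, in duplicate. EC50,DF is the dilution factor giving 50% of control normal development.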
# [1] = Degradation in seawater with simulated solar irradiation; details: for half-life at 10 mg L−1: buffer; for Ln (C/C0): 0 h
# How it was run: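 DBP at 10 mg L^−1 in pretreated seawater was irradiated with simulated sunlight (4.79 ± 0.04 mW cm^−2) at 20 °C for 0‒96 h, with dark samples alongside. pH was held at 8.2 or set to 6.2/7.2 with 4 mM phosphate buffer. Remaining compound and products were measured by HPLC-UV (230/280 nm), in duplicate.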
# [2] = Degradation in seawater in darkness (pH 6.2, 7.2, 8.2); details: for half-life at 10 mg L−1: buffer; for Ln (C/C0): 0 h
# How it was run: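 DBP spiked at 10 mg L^−1 into pretreated seawater in foil-wrapped quartz flasks, held at 20 °C in darkness for 0‒120 h with 4 mM phosphate buffer at pH 6.2, 7.2 or 8.2. Aliquots analysed by reversed-phase HPLC-UV (230 or 280 nm); duplicate runs.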
# S. aureus (ATCC 25923) = test: Inactivation of S. aureus (contact time 5 min); assay type: cell-based, Staphylococcus aureus; details: pH 7.2, contact time 5 min
# How it was run: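 Cells (10^6‒10^7 per mL) in 10 mM PBS pH 7.2 exposed to a series of DBP doses for 5 min at 22 ± 1 °C. Survivors enumerated by membrane filtration and colony counts after 24 h at 37 °C (S. aureus, Tryptone Soya; C. albicans, Sabouraud) relative to undisinfected control.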
structure (smiles),measurement,setting,value
"O=C1C=C(Cl)C(=O)C(Cl)=C1 [2,6-DCQ, 2,6-dichlorobenzoquinone]",Normal development,"P. dumerilii embryos; degradation 0 h, dilution factor 12.8",7.407% and 6.667%
same,Normal development,"P. dumerilii embryos; degradation 0 h, dilution factor 17.0667",16.2963% and 20.7921%
same,Normal development,"P. dumerilii embryos; degradation 0 h, dilution factor 21.3333",42.1875% and 37.2727%
same,Normal development,"P. dumerilii embryos; degradation 0 h, dilution factor 25.6",62.0155% and 62.3077%
same,Normal development,"P. dumerilii embryos; degradation 0 h, dilution factor 32",80% and 80.822%
same,Normal development,"P. dumerilii embryos; degradation 0 h, dilution factor 42.6667",76.7442% and 82.4428%
same,Normal development,"P. dumerilii embryos; degradation 1 h, dilution factor 6.4",1.886% and 1.145%
same,Normal development,"P. dumerilii embryos; degradation 1 h, dilution factor 8.5333",4.186% and 11.8136%
same,Normal development,"P. dumerilii embryos; degradation 1 h, dilution factor 10.6667",24.138% and 24.6154%
same,Normal development,"P. dumerilii embryos; degradation 1 h, dilution factor 12.8",51.5152% and 47.1698%
same,Normal development,"P. dumerilii embryos; degradation 1 h, dilution factor 16",70.5883% and 65.2173%
same,Normal development,"P. dumerilii embryos; degradation 2 h, dilution factor 6.4",11.0368% and 10.1754%
same,Normal development,"P. dumerilii embryos; degradation 2 h, dilution factor 8.5333",46.773% and 42.9328%
same,Normal development,"P. dumerilii embryos; degradation 2 h, dilution factor 10.6667",58.0645% and 64.2277%
same,Normal development,"P. dumerilii embryos; degradation 2 h, dilution factor 12.8",77.7778% and 71.0938%
same,Normal development,"P. dumerilii embryos; degradation 2 h, dilution factor 16",82.2282% and 85.1792%
same,Normal development,"P. dumerilii embryos; degradation 4 h, dilution factor 1.28",3.429% and 2.688%
same,Normal development,"P. dumerilii embryos; degradation 4 h, dilution factor 1.6",15.8884% and 20.3842%
same,Normal development,"P. dumerilii embryos; degradation 4 h, dilution factor 1.8286",27.1674% and 32.6748%
same,Normal development,"P. dumerilii embryos; degradation 4 h, dilution factor 2.1333",54.2087% and 56.2379%
same,Normal development,"P. dumerilii embryos; degradation 4 h, dilution factor 2.8444",78.1453% and 71.7507%
same,Normal development,"P. dumerilii embryos; degradation 4 h, dilution factor 4.2667",76.1253% and 77.0995%
same,Normal development,"P. dumerilii embryos; degradation 6 h, dilution factor 0.8",0%
same,Normal development,"P. dumerilii embryos; degradation 6 h, dilution factor 0.9143",0%
same,Normal development,"P. dumerilii embryos; degradation 6 h, dilution factor 1.0667",6.421% and 4.805%
same,Normal development,"P. dumerilii embryos; degradation 6 h, dilution factor 1.28",19.2308% and 16.923%
same,Normal development,"P. dumerilii embryos; degradation 6 h, dilution factor 1.6",44.5256% and 45.8716%
same,Normal development,"P. dumerilii embryos; degradation 6 h, dilution factor 1.8286",55.6999% and 52.4319%
same,Normal development,"P. dumerilii embryos; degradation 10 h, dilution factor 0.3657",0%
same,Normal development,"P. dumerilii embryos; degradation 10 h, dilution factor 0.4267",10.4446% and 5.949%
same,Normal development,"P. dumerilii embryos; degradation 10 h, dilution factor 0.512",22.4806% and 12.844%
same,Normal development,"P. dumerilii embryos; degradation 10 h, dilution factor 0.64",50% and 42.3728%
same,Normal development,"P. dumerilii embryos; degradation 10 h, dilution factor 0.8533",73.1885% and 72.3577%
same,Normal development,"P. dumerilii embryos; degradation 10 h, dilution factor 1.28",86.5288% and 89.8492%
same,Normal development,"P. dumerilii embryos; degradation 24 h, dilution factor 0.2844",11.3922% and 10.426%
same,Normal development,"P. dumerilii embryos; degradation 24 h, dilution factor 0.32",28.4579%
same,Normal development,"P. dumerilii embryos; degradation 24 h, dilution factor 0.3657",46.3636% and 52.9132%
same,Normal development,"P. dumerilii embryos; degradation 24 h, dilution factor 0.4267",72.0505% and 66.5657%
same,Normal development,"P. dumerilii embryos; degradation 24 h, dilution factor 0.512",75.7656% and 68.6094%
same,Normal development,"P. dumerilii embryos; degradation 24 h, dilution factor 0.64",71.3237% and 68.0033%
same,Normal development,"P. dumerilii embryos; degradation 48 h, dilution factor 0.2695",37.7015% and 37.2985%
same,Normal development,"P. dumerilii embryos; degradation 48 h, dilution factor 0.2844",52.938% and 47.9316%
same,Normal development,"P. dumerilii embryos; degradation 48 h, dilution factor 0.32",57.0093% and 59.2105%
same,Normal development,"P. dumerilii embryos; degradation 48 h, dilution factor 0.3657",74.6032% and 77.2414%
same,Normal development,"P. dumerilii embryos; degradation 48 h, dilution factor 0.4267",81.3111% and 83.4889%
same,Toxicity relative to PCMX (times less toxic),P. dumerilii embryos; after 48-h degradation in seawater in darkness,31 times
same,"EC50,DF as share of EC50,DF of PCMX",P. dumerilii embryos; after 48 h degradation in darkness,3.0%
same,half-life at 10 mg L−1,[1]; pH 6.2,4.13 h
same,half-life at 10 mg L−1,[1]; pH 7.2,3.2 h
same,half-life at 10 mg L−1,[1]; pH 8.2,1.33 h
same,Degradation rate constant k,"[1]; pH 6.2, with solar irradiation",0.168 h⁻¹
same,Ln (C/C0),[1]; pH 6.2 with solar irradiation,0
same,Degradation rate constant k,"[1]; pH 7.2, with solar irradiation",0.217 h⁻¹
same,Ln (C/C0),[1]; pH 7.2 with solar irradiation,0
same,Ln (C/C0),"[1]; seawater pH 8.2, solar irradiation",0
same,Degradation rate constant k,"[1]; seawater pH 8.2, with solar irradiation",0.520 h‒1
same,half-life at 10 mg L−1,[2]; pH 6.2,76.2 h
same,half-life at 10 mg L−1,[2]; pH 7.2,13.4 h
same,half-life at 10 mg L−1,[2]; pH 8.2,1.74 h
same,Degradation rate constant k,"[2]; pH 6.2, without solar irradiation",0.009 h⁻¹
same,Ln (C/C0),[2]; pH 6.2 in darkness,0
same,Ln (C/C0),[2]; pH 7.2 in darkness,0
same,Ln (C/C0),"[2]; seawater pH 8.2, darkness",0
same,Degradation rate constant k,"[2]; seawater pH 8.2, without solar irradiation",0.397 h‒1
same,Dose for achieving 3-log inactivation of S. aureus,S. aureus (ATCC 25923),28.6 mg L−1
same,S. aureus inactivation rate constant k,S. aureus (ATCC 25923),20200 µL/min/mg
